In PMC12865225 (Clinical and Translational Science, 2026):
pIC50: −log10 of the molar value. Like-named read-outs stand apart in the source and are kept apart here.

Key:
OATP1B1 = biological target: T1, OATP1B1 (Homo sapiens, UniProt Q9Y6L6); test: Irreversible inhibition (reversibility) assay of OATP1B1; type: cell-based; details: for reversibility of OATP1B1 inhibition: wash-out after 15 min preincubation
T1 construct: expressed in transfected cells; host or cells: HEK293 (recombinant baculovirus-mediated transduction)
T1 sequence (Q9Y6L6 1-691): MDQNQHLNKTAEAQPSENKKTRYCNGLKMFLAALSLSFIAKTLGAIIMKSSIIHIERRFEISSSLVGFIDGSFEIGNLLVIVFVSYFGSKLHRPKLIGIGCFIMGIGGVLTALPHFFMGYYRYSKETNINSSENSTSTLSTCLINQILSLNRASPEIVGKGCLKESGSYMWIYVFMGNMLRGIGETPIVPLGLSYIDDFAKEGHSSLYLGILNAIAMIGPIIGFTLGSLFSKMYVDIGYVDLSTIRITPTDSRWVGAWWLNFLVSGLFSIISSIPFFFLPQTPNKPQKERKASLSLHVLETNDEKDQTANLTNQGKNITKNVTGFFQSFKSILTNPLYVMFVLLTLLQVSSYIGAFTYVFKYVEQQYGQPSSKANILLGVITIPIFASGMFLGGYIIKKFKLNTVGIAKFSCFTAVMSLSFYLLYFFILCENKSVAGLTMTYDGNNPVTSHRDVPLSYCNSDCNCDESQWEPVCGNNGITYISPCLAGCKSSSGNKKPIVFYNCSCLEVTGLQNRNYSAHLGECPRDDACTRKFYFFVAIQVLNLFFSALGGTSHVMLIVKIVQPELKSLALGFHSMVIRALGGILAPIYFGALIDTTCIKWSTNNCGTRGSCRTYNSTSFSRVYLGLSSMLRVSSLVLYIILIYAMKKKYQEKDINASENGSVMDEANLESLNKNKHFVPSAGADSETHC
Protocol: were removed and 300 µl of warm TP-buffer was added to each well and incubated for 5 min.
The washing was repeated twice , after which the transport assays were conducted in the presence of 1 µM 2′,7′ -dichlorofluorescein for 5 min. The wells that were pre -incubated with […]
incubated with the vehicle contained three different inhibitor concentrations. After the transport

OAT1 = test system: T2, OAT1; test: OAT1 inhibition, fluorescein uptake into HEK293 cells; type: cell-based; details: human, HEK293 cells transiently expressing OAT1, pH 7.4, probe fluorescein 5 µM; 200 μM inhibitor, 5 μM fluorescein; read-out: inhibition of fluorescein transport into OAT1-expressing cells
T2 construct: expressed in transfected cells; host or cells: HEK293 (recombinant baculovirus-mediated transduction)
Protocol: The human transporters OATP1B1, OATP1B3, OATP2B1, and OAT1‐OAT4 and a negative control protein (enhanced yellow fluorescent protein, eYFP) were transiently expressed in human embryonic kidney 293 (HEK293) cells by recombinant baculovirus‐mediated transduction. Baculoviruses carrying human genes for the transporters were prepared as reported previously. HEK293 cells were cultured in DMEM containing 10% fetal bovine serum at 37°C and 5% CO2 and passaged two to three times per week. For the transport studies, 0.05 × 10^6 cells for 48‐well plates (OATPs) or 0.06 × 10^6 cells for 24‐well plates (OATs) were seeded onto cell‐culture treated well plates coated with poly‐D‐lysine. […]
In the OATP inhibition assays, inhibitors in warm TP‐buffer were directly applied to cells after media removal, followed by a 30‐min preincubation step in the presence of inhibitors. […] OAT1 and OAT3 cells were lysed with 200 μL of 1 M sodium hydroxide for 10 min, and 150 μL of these samples were transferred to a black well plate for fluorescein quantification. […]
For the inhibition data analysis, the average of measured concentrations in the control cells was subtracted from the average of measured concentrations in transporter‐expressing cells for each inhibitor concentration and then normalized to the vehicle sample that represents 100% transport activity. […]

MRP2 = test system: T3, MRP2; test: Efflux transport assay in MRP2 HEK293 membrane vesicles; type: biochemical, human; details: 5 and 50 µM, 10 min
T3 construct: made in house; host or cells: membrane vesicles from HEK293 cells expressing the transporter

[1] = 1 µM 2′,7′-dichlorofluorescein, 5 min, read-out: IC50 OATP1B1, inhibitor present only during the transport assay
[2] = cells washed three times before the transport assay, read-out: IC50 OATP1B1, inhibitor present only during the preincubation

pIC50 (OATP1B1; [1]) | pIC50 (OATP1B1; [2]) | reversibility of OATP1B1 inhibition (OATP1B1) | inhibition at 5 min, 200 μM (OAT1) [%] | transport by MRP2 (MRP2) | SMILES
5.32 | 3.62 | reversible | < 50 | did not transport | Cc1onc(-c2c(Cl)cccc2Cl)c1C(=O)N[C@@H]1C(=O)N2[C@@H]1SC(C)(C)[C@@H]2C(=O)O [Dicloxacillin]
4.81 | 3.34 | reversible | < 50 | did not transport | Cc1onc(-c2c(F)cccc2Cl)c1C(=O)N[C@@H]1C(=O)N2[C@@H]1SC(C)(C)[C@@H]2C(=O)O [Flucloxacillin]
